The source made the active and inactive calls.
How the values were obtained:
[1] = Luminescence Cell-Based Dose Retest to Confirm Activators of 5'UTR Stem-Loop Driven Alpha-Synuclein mRNA Translation in H4 Neuroglioblastoma Cells. [Related pubchem assays (depositor defined):AID1813, AID1829]; format: functional
[2] = Luminescence Cell-Based Dose Response HTS to Identify Activators of Luciferase Translation or Activity in H4 […] Cells. [Related pubchem assays: 1829 (Project Summary), 1814 (Primary HTS)]; format: functional
[3] = Luminescence Cell-Based Dose Response HTS to Identify Activators of 5'UTR Stem-Loop Driven Prion Protein mRNA Translation in H4-C Neuroglioblastoma Cells. [Related pubchem assays: 1829 (Project Summary), 1814 (Primary HTS)]; format: functional
[4] = Luminescence Cell-Based Dose Confirmation HTS to Identify Activators of 5'UTR Stem-Loop Driven Alpha-Synuclein mRNA Translation in H4 Neuroglioblastoma Cells. [Related pubchem assays: 1829 (Project Summary), 1814 (Primary HTS)]; format: functional
[5] = Luminescence Cell-Based Dose Response HTS to Identify Activators of Luciferase Translation or Activity in H4-C Neuroglioblastoma Cells. [Related pubchem assays: 1829 (Project Summary), 1814 (Primary HTS)]; format: functional
H4 = test: Luminescence Cell-Based Dose Response HTS to Identify Activators of 5'UTR Stem-Loop Driven Prion Protein mRNA Translation in H4 Neuroglioblastoma Cells. [Related pubchem assays: 1829 (Project Summary), 1814 (Primary HTS)]; format: functional; conditions: Homo sapiens
[6] = inhibition of ADP-Glo detection reagents, dose response, artefact control for CDK5 inhibitor project, biochemical, luminescence, cherry-picked samples, set 2 (AID 504546); format: functional
[7] = CEM21 lymphoblast cell cytotoxicity, dose response, cytotoxicity control for viral fusion inhibitor project, CellTiter-Glo luminescence, cherry-picked (AID 652042); format: functional, cell-based;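 note: potency for signal decrease meaning cytotoxicity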
[8] = target: Cyclin-dependent kinase 5/CDK5 activator 1 (Homo sapiens, UniProt Q00535); test: CDK5/p35 kinase inhibitors, dose response, biochemical, cherry-picked samples, set 2 (AID 504545)
Cyclin-dependent kinase 5/CDK5 activator 1, sequence (Q00535 whole entry, the tested form may be a part): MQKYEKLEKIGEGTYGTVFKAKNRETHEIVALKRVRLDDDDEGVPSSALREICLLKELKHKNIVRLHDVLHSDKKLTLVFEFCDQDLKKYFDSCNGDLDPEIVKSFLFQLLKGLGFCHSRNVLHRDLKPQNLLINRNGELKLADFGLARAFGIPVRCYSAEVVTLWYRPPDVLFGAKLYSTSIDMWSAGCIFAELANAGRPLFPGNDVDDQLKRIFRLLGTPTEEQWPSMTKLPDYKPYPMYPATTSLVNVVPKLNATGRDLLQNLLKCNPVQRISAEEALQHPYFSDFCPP
Cyclin-dependent kinase 5/CDK5 activator 1, sequence (Q15078 whole entry, further chain, the tested form may be a part): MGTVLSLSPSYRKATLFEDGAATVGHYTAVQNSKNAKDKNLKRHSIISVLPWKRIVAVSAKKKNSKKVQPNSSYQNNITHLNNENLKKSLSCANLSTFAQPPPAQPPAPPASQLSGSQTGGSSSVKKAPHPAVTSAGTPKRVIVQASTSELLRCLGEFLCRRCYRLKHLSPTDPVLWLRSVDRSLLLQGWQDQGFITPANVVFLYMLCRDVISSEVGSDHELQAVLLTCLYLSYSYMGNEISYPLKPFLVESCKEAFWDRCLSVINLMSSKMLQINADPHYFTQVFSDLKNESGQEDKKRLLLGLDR

[9] = inhibitors of clade B AD8 Env fusion, dose response, cell-based, cherry-pick (AID 652062); format: functional;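 note: luciferase signal from cell-cell fusion driven by HIV-1 clade B AD8 Env; potency is for inhibitors of fusion seen as a drop in luminescence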
[10] = Luminescence Cell-Based Dose Confirmation HTS to Identify Inhibitors of Platelet Dense Granule Release. [Related pubchem assays: 1663 (Primary HTS), 1678 (Summary of Project)]; format: functional
[11] = Luminescence-based counterscreen assay for KLF5 inhibitors: dose response cell-based high throughput screening assay to identify cytotoxic compounds using the IEC-6 intestinal epithelial cell line. [Related pubchem assays: 1700 (Primary screen.), 1834 (Confirmation screen.), 1858 (Summary AID.), 1905 (Counterscreen.)]; format: functional
[12] = cytotoxicity in HEK-293T cells, dose response, cytotoxicity control for TCR NF-kB inhibitor project, luminescence, T-cell screen hits (AID 489026); format: functional, cell-based;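 note: cells exposed to compound about 14 hours before the viability readout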
[13] = target: Luciferin 4-monooxygenase (Photinus pyralis, UniProt P08659); test: firefly luciferase enzyme inhibitors, dose response, biochemical, luminescence (AID 1891)
Luciferin 4-monooxygenase, sequence (P08659 whole entry, the tested form may be a part): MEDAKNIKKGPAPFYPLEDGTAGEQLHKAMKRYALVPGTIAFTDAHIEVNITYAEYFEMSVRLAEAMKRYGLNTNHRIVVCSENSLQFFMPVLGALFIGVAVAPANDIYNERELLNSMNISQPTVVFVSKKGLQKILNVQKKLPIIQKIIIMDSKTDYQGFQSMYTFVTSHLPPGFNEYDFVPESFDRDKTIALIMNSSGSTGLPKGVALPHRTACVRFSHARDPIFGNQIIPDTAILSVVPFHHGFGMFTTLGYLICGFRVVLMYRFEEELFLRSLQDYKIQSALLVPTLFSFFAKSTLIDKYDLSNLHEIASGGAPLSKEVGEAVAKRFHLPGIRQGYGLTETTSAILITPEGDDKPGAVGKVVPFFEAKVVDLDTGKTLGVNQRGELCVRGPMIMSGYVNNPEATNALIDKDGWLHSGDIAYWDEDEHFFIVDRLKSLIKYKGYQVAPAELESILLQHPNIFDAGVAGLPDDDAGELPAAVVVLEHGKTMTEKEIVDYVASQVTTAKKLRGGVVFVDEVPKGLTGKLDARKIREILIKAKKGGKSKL

[14] = off-target signal loss in HeLa-CEM21 co-culture – HeLa F-luc CTL cells, cherry-picked, counter-screen for HIV-1 Env fusion inhibitor project, dose response (AID 652040); format: functional, cell-based;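 note: potency for signal decrease marking cytotoxic or nonspecific inhibition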
[15] = ZM109 Env clade C HIV-1 fusion inhibitors, dose response, HeLa effector, CEM target cells, luciferase, cherry-pick (AID 652058); format: functional, cell-based
[16] = inhibitors of HIV Env-driven cell fusion, dose response, cherry-pick (AID 652057); format: functional, cell-based
X-box-binding protein 1 = X-box-binding protein 1 (Homo sapiens, UniProt P17861); format: functional, Cricetulus griseus;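 note: confirmatory dose-response counter-screen serving a CHOP assay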
X-box-binding protein 1, sequence (P17861 whole entry): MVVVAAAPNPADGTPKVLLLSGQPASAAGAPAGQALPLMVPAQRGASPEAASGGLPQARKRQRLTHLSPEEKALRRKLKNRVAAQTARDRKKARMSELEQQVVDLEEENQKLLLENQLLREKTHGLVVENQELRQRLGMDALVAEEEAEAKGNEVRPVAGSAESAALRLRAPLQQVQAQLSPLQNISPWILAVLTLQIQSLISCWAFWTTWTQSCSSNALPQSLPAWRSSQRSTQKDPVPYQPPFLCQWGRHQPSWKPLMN

Hexokinase HKDC1 = target: T1, Hexokinase HKDC1 (Homo sapiens, UniProt Q2TB90); test: HKDC1 hexokinase inhibitors, dose response, biochemical, W721R variant (AID 504729); format: functional
T1 sequence (Q2TB90 whole entry): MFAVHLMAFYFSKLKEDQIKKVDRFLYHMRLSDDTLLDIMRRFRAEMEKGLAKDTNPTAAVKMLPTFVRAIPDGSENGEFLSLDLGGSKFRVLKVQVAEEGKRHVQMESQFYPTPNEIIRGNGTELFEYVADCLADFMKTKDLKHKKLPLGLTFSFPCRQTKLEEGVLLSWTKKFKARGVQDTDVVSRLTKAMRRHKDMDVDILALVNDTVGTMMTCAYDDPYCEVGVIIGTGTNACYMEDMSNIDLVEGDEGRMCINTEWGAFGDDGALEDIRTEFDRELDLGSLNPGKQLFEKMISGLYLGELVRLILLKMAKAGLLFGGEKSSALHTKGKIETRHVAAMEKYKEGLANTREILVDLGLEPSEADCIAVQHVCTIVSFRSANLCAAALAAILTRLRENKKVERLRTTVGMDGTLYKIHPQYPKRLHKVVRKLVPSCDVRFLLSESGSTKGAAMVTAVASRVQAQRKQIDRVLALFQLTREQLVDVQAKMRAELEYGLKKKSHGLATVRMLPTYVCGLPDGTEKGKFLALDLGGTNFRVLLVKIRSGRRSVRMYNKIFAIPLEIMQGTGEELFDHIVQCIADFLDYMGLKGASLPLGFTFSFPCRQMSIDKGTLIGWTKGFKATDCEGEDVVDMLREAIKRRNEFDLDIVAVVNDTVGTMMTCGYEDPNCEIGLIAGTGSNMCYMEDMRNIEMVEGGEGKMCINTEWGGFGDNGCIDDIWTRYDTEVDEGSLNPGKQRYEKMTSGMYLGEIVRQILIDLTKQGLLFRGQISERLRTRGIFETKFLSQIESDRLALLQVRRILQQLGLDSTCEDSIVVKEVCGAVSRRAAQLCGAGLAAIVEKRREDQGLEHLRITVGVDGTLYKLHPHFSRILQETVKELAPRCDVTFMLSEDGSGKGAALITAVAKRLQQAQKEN

Cc1ccc(NC(=O)c2ccc3snnc3c2)cc1
EC50 [1]: 0.885 µM (active) | EC50 [2]: 6.57 µM (active) | EC50 [3]: 0.185 µM (active) | EC50 [4]: 2.76 µM (active) | EC50 [5]: 1.88 µM (active) | EC50 (H4): > 120 µM (not active)

Cc1ccc(C(=O)O/N=C(\N)c2ccccn2)c(Cl)c1
AC50 [6]: 92.9 µM (active) | AC50 [7]: 17.3 µM (active) | AC50 [8]: 21.4 µM (active) | AC50 [9]: 6.87 µM (active) | EC50 [10]: 1.2 µM (active) | IC50 [11]: 20.1 µM (not active) | IC50 [12]: > 80 µM (inactive) | EC50 [13]: 0.782 µM (active) | AC50 [14]: 9.61 µM (active) | AC50 [15]: 21.8 µM (active) | AC50 [16]: 3.44 µM (active)

CC(C)c1ccc(NC(=O)CSc2[nH]c(-c3ccccc3F)nc3ncnc2-3)cc1
Absolute IC50 (XBP1) (X-box-binding protein 1): 10 µM

C=CCn1c(SCC(=O)Nc2sc3c(c2C#N)CCC(C)C3)nc2cc(C(=O)O)ccc2c1=O (centres undefined)
IC50 (Hexokinase HKDC1): > 80 µM (inactive)

Source: ChEMBL document CHEMBL1201862, “PubChem BioAssay data set” (2004)
